The values that follow come from ChEMBL document CHEMBL3714762, “Agents and methods for treating ischemic and other diseases” (2012).

≈ marks a conversion by molar mass, not a printed value. Where only a bound is given, the exact number is not on record here.

Data set [1] in a line: Antiproliferative activity against human WERI cells assessed as inhibition of cell proliferation by measuring normalized ratio of propidium iodide uptake at 5 uM by propidium iodide uptake based fluoroskan microplate reader analysis. The format is functional.
For another data set, the system named is HeLa. Kind of data set: Antiproliferative activity against human HeLa cells assessed as inhibition of cell proliferation at 10 uM incubated for 72 hrs by Cell-titer-Glo cell viability assay. It counts as functional.
Data set [2] can be described thus: Antiproliferative activity against human WERI cells assessed as inhibition of cell proliferation by propidium iodide uptake based fluoroskan microplate reader analysis. It counts as functional.
Another data set relates to Y79. The data set is described as follows: Antiproliferative activity against human Y79 cells assessed as inhibition of cell proliferation at 10 uM incubated for 72 hrs by Cell-titer-Glo cell viability assay. The format is functional. To be noted: Y79, 72 h.
Data set [3] can be described thus: Antiproliferative activity against human MCF10A cells assessed as inhibition of cell proliferation at 10 uM incubated for 72 hrs by Cell-titer-Glo cell viability assay. It counts as cell-based, MCF-10A.
A short description of data set [4]: Antiproliferative activity against mouse B16F10 cells assessed as inhibition of cell proliferation at 10 uM incubated for 72 hrs by Cell-titer-Glo cell viability assay. It counts as functional. To be noted: B16-F10, 72 h.
Data set [5] is described as follows: Antiproliferative activity against human WERI cells assessed as inhibition of cell proliferation by measuring normalized ratio of propidium iodide uptake at 10 uM by propidium iodide uptake based fluoroskan microplate reader analysis. The format is functional.
Data set [6] in a line: Stability in rat microsomes assessed half life. The format is ADME, Microsome.
The nature of data set [7]: Solubility in aqueous solution. It counts as physicochemical.
Another data set relates to MCF7. The data set is described as follows: Antiproliferative activity against human MCF7 cells assessed as inhibition of cell proliferation at 10 uM incubated for 72 hrs by Cell-titer-Glo cell viability assay. It counts as functional. To be noted: MCF7, 72 h.
Data set [8] can be described thus: Antiproliferative activity against human DMS53 cells assessed as inhibition of cell proliferation at 10 uM incubated for 72 hrs by Cell-titer-Glo cell viability assay. The format is functional. To be noted: DMS-53, 72 h.
Data set [9] in a line: Antiproliferative activity against human WI38 cells assessed as inhibition of cell proliferation at 10 uM incubated for 72 hrs by Cell-titer-Glo cell viability assay. It counts as cell-based, WI-38.

The term inhibition denotes the share of the control response that was lost under treatment. As a reminder, the IC50 is the midpoint of a concentration-inhibition curve. On to `Cc1ccc2c(c1)CCN=C2c1sc2ccccc2c1Cl`, for which the Ratio in [1] turned out to be 0.011; in data set [5], 0.003. For the same molecule, the inhibition at 10 µM (in the data set on HeLa; with Y79; in data set [4]) was above 40% each time. For the same molecule, in [2], the IC50 stood at 1.83 µM. Besides, the inhibition at 72 h, 10 µM in data set [3] is above 40%.

Regarding `Fc1ccc2c(c1)CCCN2Cc1sc2ccccc2c1Cl`, the Ratio in [1] came to 0.286; in data set [5] it was 0.098. The IC50 in data set [2] was found to be 4.09 µM.

As for `CN(Cc1ccccc1N1CCCC1)C(=O)c1sc2ccccc2c1Cl`, the Ratio in data set [1] is listed as 0.234; in data set [5] it was 0.043. In addition, the IC50 in data set [2] is 3.44 µM.

Turning to `Clc1cccc2c1CCN=C2c1sc2ccccc2c1Cl`, the results for the Ratio in data set [1] and in data set [5] were 0.065 and 0.1, respectively. The IC50 in data set [2] worked out at 2.26 µM.

As for `Cc1ccc(S(=O)(=O)Nc2sc3ccccc3c2Cl)cc1`, the Ratio is listed as 0.297 in data set [1] and 0.121 in data set [5]. Moreover, the IC50 in data set [2] is 3.59 µM.

Regarding `O=C(c1sc2ccccc2c1Cl)N1CCCc2ccccc21`, the Ratio in data set [1] was determined as 0.545; in data set [5] it was 0.216. Further, the IC50 in data set [2] is 9.8 µM.

Take `COc1ccc(C)c(N(Cc2ccncc2)C(=O)c2sc3ccccc3c2Cl)c1`: the values for the Ratio in data set [1] and in [5] were 0.573 and 0.228, respectively. For the same molecule, the inhibition at 10 µM in the data set with HeLa is above 40%. Besides, the IC50 in data set [2] came to 5.73 µM.

Broadly, the half-life is the time needed for the level to fall by half in the phase considered. Low readings indicate fast loss, high ones slow loss. For the molecule `Cc1c(Cc2c(F)cccc2Cl)c(=O)oc2cc(O)cc(O)c12`, the Ratio in [1] came to 0.721; in [5], 0.102. Also, the half-life in data set [6] amounted to 5 min.

A word on the solubility: it is the concentration that dissolves in the medium under given conditions. A lower solubility goes with little dissolved substance. On to `COc1ccc2c(Cl)c(C3NCCc4cc(OC)c(OC)cc43)sc2c1` (stereo unspecified), for which the solubility in data set [7] worked out at 100 µM (≈ 39 µg/mL). In data set [6], this molecule registered a half-life above 30 min.

Turning to `COc1cc2c(cc1OC)C(c1sc3ccccc3c1Cl)=NCC2`, the Ratio stood at 0.011 in data set [1] and 0 in data set [5]. Moreover, the IC50 in data set [2] stood at 0.05 µM. The same molecule came in with a solubility in data set [7] of 100 µM (≈ 35.8 µg/mL).

`Cc1ccc(N(Cc2cccc(C)n2)C(=O)c2sc3ccccc3c2Cl)c(C)c1`: the figures for the Ratio in data set [1] and in data set [5] were 0 and 0.1, respectively. Besides, the inhibition at 10 µM (with HeLa; with Y79; in data set [4]) was above 40% in each case. For the same molecule, the IC50 in [2] stood at 0.84 µM.

Take `COc1ccc2c(c1)CCCN2C(=O)c1sc2ccccc2c1Cl`: the results for the Ratio in data set [1] and in data set [5] were 0.695 and 0.276, respectively. For the same molecule, the IC50 in [2] is 5.66 µM.

On to `COc1ccc2sc(C(=O)N3CCCc4cc(C)ccc43)c(Cl)c2c1`, for which the Ratio turned out to be 0.116 in data set [1] and 0.051 in data set [5]. For the same molecule, the inhibition at 10 µM (in the data set with HeLa; with MCF7; in the data set on Y79; in data set [4]) was above 40% throughout. Further, the IC50 in data set [2] came to 2.83 µM. Further, the inhibition at 72 h, 10 µM in data set [3] was above 40%.

On to `COc1cc2c(cc1OC)CN(C(=O)c1sc3ccccc3c1Cl)CC2`, for which the Ratio in [1] is reported as 0.042; in data set [5] it was 0.024. In addition, the IC50 in [2] was found to be 0.62 µM.

As for `Cc1ccc2c(c1)CCCN2C(=O)c1sc2cccc(C)c2c1Cl`, the Ratio is on record as 0.235 in [1] and 0.4 in data set [5]. For the same molecule, in data set [2], the IC50 turned out to be 2.02 µM.

As to `Cc1ccc2c(c1)CCCN2C(=O)c1sc2ccc(F)cc2c1Cl`, the Ratio was found to be 0.321 in [1] and 0.064 in [5]. The IC50 in data set [2] amounted to 4.52 µM.

On to `Cc1ccc(N(C)C(=O)c2sc3ccccc3c2Cl)c(C)c1`, for which the Ratio turned out to be 0.53 in [1] and 0.33 in data set [5]. In addition, the IC50 in [2] is 4.57 µM.

`COc1ccc(C)c(N(Cc2cccnc2)C(=O)c2sc3ccccc3c2Cl)c1`: the Ratio in data set [1] was 0.08; in data set [5], 0.1. In addition, in the data set with HeLa, the inhibition at 10 µM is above 40%. Besides, the IC50 in [2] came out at 2.37 µM.

On to `COc1cc2c(cc1OC)C(c1sc3cccc(OC)c3c1Cl)NCC2` (stereo unspecified), for which the results for the Ratio in data set [1] and in [5] were 0.008 and 0.012, respectively. Further, the IC50 in [2] amounted to 0.32 µM.

For the molecule `COc1ccc2c(c1)CCNC2c1sc2ccccc2c1Cl` (stereo unspecified), the Ratio amounted to 0.016 in data set [1] and 0.003 in [5]. For the same molecule, the IC50 in [2] stood at 1 µM.

As for `O=C(NCc1ccccc1N1CCCC1)c1sc2ccccc2c1Cl`, the Ratio in data set [1] was determined as 0.195; in data set [5], 0.375. Further, the inhibition at 10 µM (in the data set on HeLa; in the data set with MCF7; in the data set with Y79; in [4]; in [8]) was above 40% in each case. In addition, the 50% inhibitory concentration (IC50) in data set [2] was 1.25 µM. The inhibition at 72 h, 10 µM in data set [3] is above 40%.

Turning to `O=C(c1sc2ccccc2c1Cl)N1CCCc2cc(Cl)ccc21`, the Ratio was 0.267 in [1] and 0.049 in data set [5]. The IC50 in data set [2] turned out to be 3.69 µM.

Consider `CC1c2ccsc2CCN1C(=O)c1sc2ccccc2c1Cl` (stereo unspecified), for which the Ratio is recorded as 0 in data set [1] and 0.056 in data set [5]. In addition, the IC50 in data set [2] came to 1.55 µM.

For the molecule `COc1ccc2c(c1)C(c1sc3cccc(C)c3c1Cl)=NCC2`, the results for the Ratio in data set [1] and in data set [5] were 0.019 and 0.047, respectively. For the same molecule, the inhibition at 72 h, 10 µM in data set [9] and in data set [3] was above 40% each time. The inhibition at 10 µM (in the data set with HeLa; in the data set on MCF7; in the data set on Y79; in data set [8]) was above 40% in each case. Also, the IC50 in [2] came to 1.31 µM.

With `COc1cc2c(cc1OC)C(c1sc3ccccc3c1Cl)NCC2` (stereo unspecified), the Ratio in data set [1] is 0.019; in data set [5] it was 0. For the same molecule, in [2], the IC50 was found to be 0.08 µM.

Take `COc1cc2c(cc1OC)C(c1sc3cccc(C)c3c1Cl)=NCC2`: the Ratio in [1] came out at 0.042; in data set [5], 0.028. For the same molecule, the inhibition at 72 h, 10 µM in [9] and in data set [3] was above 40% each time. Further, the inhibition at 10 µM (in the data set on HeLa; with MCF7; with Y79; in data set [4]; in data set [8]) was above 40% each time. In addition, the IC50 in data set [2] amounted to 0.34 µM. The solubility in [7] turned out to be 100 µM (≈ 37.2 µg/mL).

Turning to `COc1cc(OC)c2c(C)c(Cc3ccccc3)c(=O)[nH]c2c1`, in data set [6], the half-life is above 30 min.

Turning to `COc1cc2c(cc1OC)C(c1sc3cccc(F)c3c1Cl)NCC2` (stereo unspecified), the Ratio in data set [1] is recorded as 0.009; in data set [5], 0. In addition, the IC50 in [2] came to 0.49 µM.

Molecule `COc1cc2c(cc1OC)C(c1sc3cccc(C)c3c1Cl)NCC2` (stereo unspecified) displayed a solubility in [7] of 100 µM (≈ 37.4 µg/mL).

For the molecule `COc1cc2c(cc1OC)C(c1sc3ccccc3c1Cl)N(C)CC2` (stereo unspecified), the results for the Ratio in data set [1] and in data set [5] were 0.042 and 0, respectively. Also, the IC50 in data set [2] turned out to be 1.77 µM.

`COc1ccc2c(c1)CCN(C)C2c1sc2ccccc2c1Cl` (stereo unspecified): the Ratio in data set [1] amounted to 0.344; in data set [5], 0.027. For the same molecule, in data set [2], the IC50 was found to be 4.34 µM.

With `Cc1ccc2c(c1)CCCN2C(=O)c1sc2cccc(F)c2c1Cl`, the Ratio stood at 0.273 in data set [1] and 0.097 in data set [5]. In addition, in data set [2], the IC50 is 3.29 µM.

Take `CCCc1c(Cc2cccc(Cl)c2)c(=O)[nH]c2cc(OC)cc(OC)c12`: the Ratio in [1] turned out to be 0.072; in data set [5] it was 0.037. In addition, in data set [2], the IC50 is 0.96 µM.

As to `Cc1c(Cc2cccc(Cl)c2)c(=O)oc2cc(O)ccc12`, the values for the Ratio in data set [1] and in [5] were 0.41 and 0.041, respectively. For the same molecule, the IC50 in [2] came out at 5.59 µM.

For the molecule `COc1cccc2c1CCN=C2c1sc2cccc(C)c2c1Cl`, the values for the Ratio in [1] and in [5] were 0.042 and 0.13, respectively. The inhibition at 72 h, 10 µM in [9] and in [3] was above 40% each time. For the same molecule, the inhibition at 10 µM (with HeLa; with MCF7; with Y79; in data set [4]; in data set [8]) was above 40% in each case. In addition, the IC50 in [2] came to 0.36 µM.

Take `COc1cc(OC)c2c(C)c(Cc3cccc(Cl)c3)c(=O)oc2c1`: the Ratio in [1] was found to be 0.088; in [5], 0.19. For the same molecule, the IC50 in [2] was 0.77 µM.

As for `COc1ccc2c(Cl)c(C(=O)N3CCCc4cc(C)ccc43)sc2c1`, the values for the Ratio in [1] and in data set [5] were 0.294 and 0.11, respectively. For the same molecule, the inhibition at 72 h, 10 µM in data set [9] and in data set [3] was above 40% in each case. Further, the inhibition at 10 µM (with HeLa; with MCF7; with Y79; in data set [4]; in data set [8]) was above 40% each time. Further, the IC50 in data set [2] came out at 4.03 µM.

Turning to `COc1ccc2c(c1)C(c1sc3ccccc3c1Cl)=NCC2`, the figures for the Ratio in data set [1] and in data set [5] were 0.36 and 0.07, respectively. Further, the IC50 in data set [2] stood at 3.21 µM.

Take `Cc1c(Cc2ccc(Cl)c(Cl)c2)c(=O)oc2cc(O)c(F)cc12`: the Ratio is on record as 0.314 in data set [1] and 0.002 in [5]. Besides, the IC50 in [2] worked out at 4.03 µM.
